What was measured:
tomato = assay: Phytotoxicity of foliar spray in uninfected tomato (Example 1); type: in vivo, Solanum lycopersicum; details: 500 μM foliar spray, 8 plants per treatment
Protocol: (§1) Tomato seeds, cv. Moneymaker (Vreeken's Zaden, Dordrecht, the Netherlands) were sown on autoclaved potting soil coveed with polyethylene film and placed at 24° C. for eight days. Seedlings were then transferred to individual SAP-filled pots and placed in a growth chamber at 24° C. Plants were watered three times per week with 25 ml of quarter-strength Hoagland solution for the first two weeks and half-strength thereafter.
(§2) Unless otherwise mentioned, all chemicals for nematode experiments were applied as a foliar spray consisting of the target compound at a concentration of 300 μM together with 0.1% (v/v) Tween 20 surfactant (Calbiochem) in distilled water. Again unless otherwise mentioned, all treatments for the nematode experiments were carried out three times: one and eight days before pathogen inoculation and seven days after pathogen inoculation. In all cases, plants were sprayed until run-off with an atomizer.
Short-term phytotoxicity experiments (Example 1) were analyzed using non-parametric methods. For each variable, overall significance was determined using the Kruskal-Wallis test (Kruskal and Wallis, 1952), followed by a posthoc Conover-Iman test (Conover and Iman, 1981) with Hommel multiplicity correction (Hommel, 1988) if the Kruskal-Wallis test was significant. When only two groups were present, the Wilcoxon-Mann-Whitney test was used (Mann and Whitney, 1947).
To test whether C4H inhibitors induce phytotoxic effects in crops, uninfected tomato, wheat and carrot were treated with piperonylic acid (PA), 4-iodobenzoic acid (4-IBA) and piperic acid (PIA) at a concentration of 500 μM through foliar application. At harvest, leaf area (or shoot length in the case of wheat) and primary root length were recorded. The BBCH developmental stage (Lancashire et al., 1991), a measure of developmental retardation, was used to test for effects on development. Finally, the presence of visible signs of phytotoxicity such as chlorosis, discoloration or necrosis was recorded.

Meloidogyne incognita = Meloidogyne incognita infection in tomato cv. Moneymaker (Example 7); type: in vivo
Protocol: as §1
M. incognita was extracted from infected tomato plants (cv. Moneymaker) roots grown in potting soil at 24° C. Nematodes were collected, counted and inoculated using the same procedure described for M. graminicola above.
as §2
Infection experiments with M. incognita were performed in the same manner as those with M. graminicola, except that plants were harvested 31 days after inoculation instead of 14 days. At this point, the plants were phenotyped by measuring the root length with a ruler and in some experiments by measuring leaf area using the EasyLeafArea software (Easlon and Bloom, 2014) and by determining shoot dry mass after 72 hours of drying in an oven at 70° C. Galls were stained and counted as described above.
Additionally, a possible dose response effect was investigated by applying PA at three concentrations: 100, 400 and 700 μM.

[1] = system: Botrytis cinerea (isolate R16); assay: Botrytis cinerea infection of detached tomato leaves (Example 13); type: in vivo; set-up: dose or concentration left out as unconfirmed; details: spray containing PA, four days after inoculation, vs control
Protocol: Tomato plants (cv. Moneymaker) were grown for four weeks in potting soil as described in the plant material section. Six hours before inoculation, the third leaf of each tomato plant was detached. The petioles were wrapped in wet tissue paper and the leaves were placed on a petri dish. […] Finally, the tray was covered with a plastic autoclave bag to keep humidity at 100%.
Botrytis cinerea (line R16) spores were obtained as described in the fungal culture section, centrifuged for five minutes at 3000 rpm and resuspended to a concentration of 1.0×10^6 spores per ml with a solution of 0.01 M glucose and 0.0067 M KH2PO4. The spore suspension was left at room temperature for one hour to trigger germination. […]
Six drops of spore suspension of 15 μl each were spotted on each detached tomato leaf, after which the tray was covered again. The tray was placed at room temperature away from direct sunlight and left for four days. At this point, chlorophyll fluorescence measurements were taken to assess the success of infection. Two parameters were assessed: whether the B. cinerea lesion had spread beyond the droplet area (successful invasion) and the total surface area of successfully established lesions (post-invasion growth).

[2] = system: Pseudomonas syringae DC3000; assay: Pseudomonas syringae toxicity experiment in liquid culture (Example 21); type: cell-based; details: 100 μM, twenty-four hours of continuous exposure
Protocol: A glycerol stock of P. syringae pv. DC3000 kept at−80° C. was spotted on petri dishes containing King's B agar amended with 75 μg/ml rifampicine (Duchefa Biochemie, Haarlem, the Netherlands). The plates were incubated in the dark at 28° C. for one week. At this time point, glass test tubes containing 5 ml of liquid King's B each (without rifampicin) were inoculated with cells from the plates and placed on an orbital shaker at 200 rpm for 24 hours at 28° C. 100 μl of this liquid inoculum was transferred to fresh glass test tubes containing 5 ml of liquid King's B each (without rifampicin) amended either with 100 μM of PA or a corresponding control, which were placed on an orbital shaker at 200 rpm for 24 hours at 28° C. At this time point, the cells were diluted ten-fold with liquid King's B medium and the OD600 of the resulting suspension was determined using a spectrophotometer (BioRad SmartSpec Plus), with sterile King's B as a blanc.
Prior to inoculation, the effect of piperonylic acid on Pseudomonas syringae DC3000 itself was also verified by growing the bacteria on liquid culture amended with piperonylic acid or a corresponding control and measuring the OD600 (as described in the materials and methods section).

Pythium splendens = Pythium splendens in green bean with PA seed coating (Example 22); type: in vivo
Protocol: FIG. 25: (a) effect of a 500 μM piperonylic acid coating compared to a mock coating on germination in soil with or without Pythium splendens (PA: piperonylic acid coating, no Pythium; CON: mock coating, no Pythium; PA+Ps: piperonylic acid coating, Pythium splendens; CON+Ps: mock coating, Pythium splendens); N=45. (b) plant health score of emerged seedlings fourteen days after the start of the experiment. Scores: 0=seedling died after emergence; 1=seedling alive but stunted; 2=seedling healthy. (c) primary root length fourteen days after the start of the experiment, with bars indicating means and error bars standard deviation.

[3] = system: tobacco cell cultures (Nicotinium tabacum BY2); details: Schoch et al., 2002; cited from earlier work
[4] = system: spring wheat (Triticum aestivum cv. Fielder); assay: Yield and fertility in pathogen-free spring wheat (Example 2); details: 300 μM foliar spray three times; vs. control
Protocol: For Example 2, the spring wheat cultivar Fielder was used. Seeds were obtained from plants grown in the greenhouse complex of the VIB (Zwijnaarde, Belgium). Seeds were sown directly in potting soil (four seeds to a pot, thinned to three plants per pot after emergence) and placed in a growth chamber at 21° C. with 16 hours per day of light. These plants were grown until harvest; they were sprayed three times with the compounds of the invention at a concentration of 300 μM using the protocol described in the chemicals section. Spraying took place 14 and 21 days after emergence and a final time at heading.
In all cases model assumptions were verified using diagnostic plots (residuals, QQ-plot, scale-location and residuals-leverage). Outliers were removed only if they were outliers both in the statistical sense and if there was a biological reason for removal (e.g. the plant was stunted or developed a secondary infection).
To determine the effects of C4H inhibition on yield and fertility, spring wheat (Triticum aestivum cv. Fielder) was grown in a pathogen-free growth chamber until maturity and treated with a control or C4H inhibitor-containing foliar spray at regular intervals. At harvest, the number of ears per plant, the seed mass, the size of the seeds and the germination ability of the freshly harvested seeds were measured. Seed size was measured using the stacking density of the seed as a proxy measure; if a given seed mass takes up a greater volume, then the individual seeds must be larger.

Question: Which “Leaf Area” value (tomato; mean ± standard deviation) does the source give for `O=C(O)c1ccc2c(c1)OCO2` [PA, Piperonylic acid] here?
Answer: The value was 11.83 ± 1.70 cm^2.

Question: And the Root length (tomato; mean ± standard deviation)?
Answer: Its Root length is 7.95 ± 1.83 cm.

Question: What about the BBCH stage (tomato; median ± interquartile range) of the same compound?
Answer: Its BBCH stage is 102 ± 1.0.

Question: And the “negative effects on growth or development of the tomato plants” value (Meloidogyne incognita; 100, 400 and 700 μM foliar spray)?
Answer: Its value is “no negative effects on growth or development”.

Question: And the “Percent difference of mean number of galls per root system, PA100 vs. PA400” value (Meloidogyne incognita; tomato, 100 μM compared with 400 μM)?
Answer: Its value is −9%.

Question: What about the “Percent difference of mean number of galls per root system, PA100 vs. PA700” value (Meloidogyne incognita; tomato, 100 μM compared with 700 μM) of the same compound?
Answer: Its value is −2%.

Question: What about the “Percent difference of mean number of galls per root system, PA400 vs. PA700” value (Meloidogyne incognita; tomato, 400 μM compared with 700 μM) of the same compound?
Answer: Its value is “+11%”.

Question: What about the “Percent difference of mean number of galls per root system, PA100 vs. CON” value (Meloidogyne incognita; tomato, foliar spray 100 μM) of the same compound?
Answer: Its value is −54%.

Question: And the “Percent difference of mean number of galls per root system, PA400 vs. CON” value (Meloidogyne incognita; tomato, foliar spray 400 μM)?
Answer: The value was −50%.

Question: And the “Percent difference of mean number of galls per root system, PA700 vs. CON” value (Meloidogyne incognita; tomato, foliar spray 700 μM)?
Answer: The value was −55%.

Question: And the “change of mean size of successfully established/spreading lesions” value [1]?
Answer: Its value is −62%.

Question: What about the “change of number of inoculation spots in which fungal lesions developed” value [1] of the same compound?
Answer: Its value is −50%.

Question: And the “effect on bacterial growth” value [2]?
Answer: Its value is “no effect on bacterial growth”.

Question: What about the OD600 ([2]; ten-fold diluted culture, printed 0.737 vs. 0.757) of the same compound?
Answer: Its OD600 is 0.737.

Question: What about the “emergence in soil containing P. splendens” value (Pythium splendens; 500 μM PA seed coating vs mock coating) of the same compound?
Answer: The value was “did not improve emergence”.

Question: And the “seedling health after emergence” value (Pythium splendens; 500 μM PA seed coating vs mock coating, fourteen days)?
Answer: Its value is “significantly improved”.

Question: What about the “primary root length in P. splendens-infested soil vs control-coated seeds” value (Pythium splendens; 500 μM PA seed coating, fourteen days) of the same compound?
Answer: Its value is “longer”.

Question: What about the “accumulation of salicylic acid” value [3] of the same compound?
Answer: Its value is “induces the accumulation of the defense hormone salicylic acid”.

Question: And the “Total yield (seed mass)” value [4]?
Answer: The value was “not significantly different”.

Question: And the “germination after fourteen days of freshly harvested seeds” value [4]?
Answer: The value was “not significantly different”.

Question: What about the “mean number of ears per plant” value [4] of the same compound?
Answer: Its value is “the same in all treatments”.

Question: And the “seed size (stacking density)” value [4]?
Answer: Its value is “no effect”.

Source: patent publication US11992011B2, “Compounds for controlling plant pathogens” (VIB VZW, priority 2017, dated 2024)
